Assay results as given in patent US20200164026A1, “Intranasal Delivery of Cell Permeant Therapeutics” (The Trustees of Columbia University in the City of New York, priority 2010, published 2020).

Key:
rats subjected to tMCAo [1] = assay: 24-point neurofunctional scale after 2 hr tMCAo, monitored for 21 days; format: in vivo, rat
Procedure: The efficacy of Pent-XBIR3 to prevent sensory-motor disability caused by stroke was tested by giving rats either a prophylatic (pre-occlusion) or therapeutic (4 hours post reperfusion) intranasal bolus of vehicle or Pent-XBIR3 (prepared and administerd as described in section 6.8, below). Rodents were assayed with a 24-point neurofunctional scale starting at 1 day post-ischemia with testing every other day for 3 weeks after the ischemic event.
(§1) Intranasal Delivery of Pen1-XBIR3. While under isofluorane anesthesia and lying on their backs, Pen1-XBIR3 (36.8 μM) was delivered to rats by administering 6 μl drops to alternating nares every two minutes for 20 minutes (60 μl total delivered). (Thorne, et al., Neuroscience 127 (2), 481-496 (2004)). Intranasal treatment was done prior to induction of stroke. Saline was used as a negative control. Brains were harvested for immunohistochemistry or western blotting.

[2] = test system: cleaved caspase-6 (c1-C6) and caspase-9; assay: Pen1-XBIR3 delivered to the striatum (CED/ICC) prior to tMCAo; immunostaining for c1-C6 and caspase-9; format: in vivo, rat; conditions: delivered to striatum 1 hr prior to tMCAo, 24 hpr
Source text: (Davidson, et al., J Neurosci 24 (45), 10040-10046 (2004)). Upon entry into the cell the disulfide linkage is broken by the reducing environment of the cytoplasm, releasing the peptide cargo and allowing it to act at its target. Functional efficacy of this construct was confirmed using hippocampal neuronal cultures that were subjected to 4-hydroxynonenal (HNE) mediated death, a caspase-9 dependent death. (Rabacchi, et al., Neurobiol Aging 25 (8), 1057-1066 (2004)). […] To ensure that a Pen1-peptide could be delivered to the brain, Pen1 was linked to a FITC-labeled control peptide and delivered to the striatum using convection enhanced delivery (CED). Brains were harvested 24 hr after delivery, sectioned, and imaged. […] Pent-XBIR3 was delivered to the striatum 1 hr prior to tMCAo using ICC. Animals were harvested at 24 hpr and immunostained for caspase-9 and c1-C6. […]
Pen1-XBIR3. […] Linkage was assessed by 20% SDS-PAGE and western blotting with anti-His antibody. […]
Immunohistochemistry (IHC), Cell Process Quantification, and Statistical Analysis. […] Quantification of neurons and axons was accomplished using the Cell Counter plug-in for ImageJ (NIH). For quantification in the rat brain, 20x magnification images were acquired from the dorsal motor cortex and the […] somatosensory cortex forelimb region; both regions are contained are within the infarct penumbra (FIG. 1A). […]

[3] = Intranasal delivery of Pen1-XBIR3 to rat CNS; western blot (anti-HIS) of coronal brain slices; format: in vivo; conditions: intranasal 60 μl, 1 hr after delivery
Procedure: The following experiment was performed to ascertain if the Pen1-XBIR3 could also bypass the blood brain barrier via another delivery technique. […] (Dhuria, et al., J Pharm Sci 99 (4), 1654-1673 (2010); Liu, et al., J Stroke Cerebrovasc Dis 13 (1), 16-23 (2004); Liu, et al., J Neurol Sci 187 (1-2), 91-97 (2001)). This delivery method takes advantage of the olfactory pathway to bypass the blood brain barrier, however until now, proteins and compounds delivered via this method in rodent models have targeted extracellular targets, such as cell surface receptors. Since caspases, which are intracellular proteins, are targeted in this experiment, the cargo needed to be delivered intracellularly. […] Pent-XBIR3 was delivered intranasally to rats, after which brains were sliced coronally, and the presence of XBIR3 in the CNS determined by western blotting (FIG. 4A).
as §1

rats subjected to tMCAo [4] = assay: Ischemic infarct volume (H&E) after intranasal Pen1-XBIR3 and tMCAo; format: in vivo, rat; conditions: 24 hpr, n=3
Procedure: as §1

Substance: Pen1-XBIR3: BIR3 domain from XIAP, a specific caspase-9 inhibitor, disulfide-linked to Penetratin1 cell transduction peptide (SEQ ID NO: 10)
- neurofunctional score (stroke related disability) (rats subjected to tMCAo [1]; prophylactic (pre-occlusion) intranasal bolus): less stroke related disability
- neurofunctional score (stroke related disability) (rats subjected to tMCAo [1]; therapeutic (4 hours post reperfusion) intranasal bolus): functional recovery up to 21 d
- neurofunctional score (stroke related disability) (rats subjected to tMCAo [1]; therapeutic (4 hours post reperfusion) intranasal bolus, listed as Pent-XBIR3): less stroke related disability
- caspase-9 and c1-C6 immunostaining in neuronal soma and processes [2]: blocks the increase in caspase-9 and the induction of c1-C6
- caspase-9 and c1-C6 immunostaining in neuronal soma and processes ([2]; listed as Pent-XBIR3): inhibited appearance of c1-C6 and caspase-9
- presence of XBIR3 in brain slices (anterior to posterior) [3]: delivered to all slices of the brain
- presence of XBIR3 in brain slices (anterior to posterior) ([3]; listed as Pent-XBIR3): throughout the rat CNS
- ischemic infarct volume (rats subjected to tMCAo [4]): reduces ischemic infarct volume
